# In PMC4703832, “Haem-activated promiscuous targeting of artemisinin in Plasmodium falciparum” (Nature Communications, 2015):
# Experiments:
# [1] = biological target: T1, LDH (L-lactate dehydrogenase) (Plasmodium falciparum, UniProt Q76NM3); experiment: LDH inhibition assay, absorbance at […] nm; type: biochemical; conditions: 0-80 uM artesunate, haemin 200 uM and L-ascorbic acid 200 uM, 4 h preincubation at 37 °C; covalent, haem-activated
# T1 construct: gene PF3D7_1324900; gene amplified from 3D7 genomic DNA, pET28a, E. coli BL21(DE3)-star, Ni-NTA purified
# T1 sequence (Q76NM3 1-316): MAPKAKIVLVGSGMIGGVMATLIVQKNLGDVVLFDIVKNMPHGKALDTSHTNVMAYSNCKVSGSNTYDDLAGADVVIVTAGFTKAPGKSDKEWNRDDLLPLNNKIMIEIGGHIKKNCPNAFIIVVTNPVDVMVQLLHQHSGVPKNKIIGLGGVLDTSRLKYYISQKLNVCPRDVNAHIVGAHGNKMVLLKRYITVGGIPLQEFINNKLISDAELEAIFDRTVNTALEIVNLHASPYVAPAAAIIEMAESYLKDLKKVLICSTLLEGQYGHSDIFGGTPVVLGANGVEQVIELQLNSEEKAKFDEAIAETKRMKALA
# [2] = biological target: T2, PyrK (pyruvate kinase) (Plasmodium falciparum, UniProt C6KTA4); experiment: pyruvate kinase inhibition assay, absorbance at […] nm; type: biochemical; conditions: 0-80 uM artesunate, haemin 200 uM and L-ascorbic acid 200 uM, 4 h preincubation at 37 °C; covalent, haem-activated
# T2 construct: gene PF3D7_0626800
# T2 sequence (C6KTA4 1-511): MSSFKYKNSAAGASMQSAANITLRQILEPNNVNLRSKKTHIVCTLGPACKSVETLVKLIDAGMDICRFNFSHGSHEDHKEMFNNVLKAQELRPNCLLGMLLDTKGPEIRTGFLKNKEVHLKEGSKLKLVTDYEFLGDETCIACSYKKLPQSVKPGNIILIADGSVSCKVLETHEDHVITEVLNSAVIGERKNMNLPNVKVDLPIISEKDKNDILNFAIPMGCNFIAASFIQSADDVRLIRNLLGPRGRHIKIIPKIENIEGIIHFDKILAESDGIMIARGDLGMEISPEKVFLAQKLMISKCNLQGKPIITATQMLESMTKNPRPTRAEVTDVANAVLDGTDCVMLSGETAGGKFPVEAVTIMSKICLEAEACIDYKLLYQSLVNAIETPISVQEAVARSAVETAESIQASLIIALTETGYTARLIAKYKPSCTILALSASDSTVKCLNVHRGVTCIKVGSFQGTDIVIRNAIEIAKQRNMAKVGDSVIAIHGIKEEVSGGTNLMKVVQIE
smiles,measurement,setting,value
"C[C@H]1[C@H](OC(=O)CCC(=O)O)O[C@@H]2O[C@@]3(C)CC[C@H]4[C@H](C)CC[C@@H]1[C@@]24OO3 [Arts, artesunate]",dose-dependent inhibition,[1],Functional assays showed that artesunate inhibits their enzymatic activities in a dose-dependent manner
same,dose-dependent inhibition,[2],Functional assays showed that artesunate inhibits their enzymatic activities in a dose-dependent manner
